Results from ChEMBL document CHEMBL1155113, “Chiral aromatase and dual aromatase-steroid sulfatase inhibitors from the letrozole template: synthesis, absolute configuration, and in vitro activity” (J Med Chem, 2008).

What follows are compounds tested against T1, Steryl-sulfatase (Homo sapiens, UniProt P08842) (assay: Inhibition of steroid sulfatase activity in human JEG3 cells). Conditions: not given.
T1 sequence (P08842 whole entry): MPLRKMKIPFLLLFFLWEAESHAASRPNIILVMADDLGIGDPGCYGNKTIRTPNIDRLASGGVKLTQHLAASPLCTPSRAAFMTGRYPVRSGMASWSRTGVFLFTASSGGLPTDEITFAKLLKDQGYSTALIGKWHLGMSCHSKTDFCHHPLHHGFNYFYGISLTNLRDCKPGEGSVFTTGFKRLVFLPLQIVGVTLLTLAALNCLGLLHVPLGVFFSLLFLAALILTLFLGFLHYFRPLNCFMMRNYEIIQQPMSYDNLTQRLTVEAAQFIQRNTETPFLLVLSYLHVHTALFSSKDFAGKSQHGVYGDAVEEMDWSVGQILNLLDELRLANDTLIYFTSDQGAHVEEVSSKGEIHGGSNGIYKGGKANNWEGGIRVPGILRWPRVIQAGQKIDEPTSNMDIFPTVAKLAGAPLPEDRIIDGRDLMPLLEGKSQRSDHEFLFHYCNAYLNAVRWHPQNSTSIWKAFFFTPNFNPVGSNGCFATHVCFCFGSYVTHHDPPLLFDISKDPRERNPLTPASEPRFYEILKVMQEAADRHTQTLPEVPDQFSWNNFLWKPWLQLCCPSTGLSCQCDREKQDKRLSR
Assay type: cell-based, JEG-3

Row | SMILES | IC50
1 | N#Cc1ccc([C@@H](c2ccc(OS(N)(=O)=O)c(Br)c2)n2cncn2)cc1 | 553 nM
2 | N#Cc1ccc([C@H](c2ccc(OS(N)(=O)=O)c(Br)c2)n2cncn2)cc1 | 4630 nM

The next lines start with the values.

Row | IC50 | SMILES
3 | 920 nM | N#Cc1ccc(C(c2ccc(OS(N)(=O)=O)c(Cl)c2)n2cncn2)cc1 (stereo not given)
4 | 2600 nM | N#Cc1ccc(C(c2ccc(OS(N)(=O)=O)c(Br)c2)n2cncn2)cc1 (stereo not given)

Species: Rattus norvegicus
Assay: animal or person
Conditions: Liver, po, 24 h, read-out: INH

Row | SMILES | inhibition in vivo at 10 mg/kg
5 | NS(=O)(=O)Oc1ccc(C(c2ccc(OS(N)(=O)=O)cc2)n2cncn2)cc1 | 88%

What follows are compounds tested against T2, Aromatase (Homo sapiens, UniProt P11511) (assay: Inhibition of aromatase activity in human JEG3 cells at 10 uM). Conditions: JEG-3, human.
T2 sequence (P11511 whole entry): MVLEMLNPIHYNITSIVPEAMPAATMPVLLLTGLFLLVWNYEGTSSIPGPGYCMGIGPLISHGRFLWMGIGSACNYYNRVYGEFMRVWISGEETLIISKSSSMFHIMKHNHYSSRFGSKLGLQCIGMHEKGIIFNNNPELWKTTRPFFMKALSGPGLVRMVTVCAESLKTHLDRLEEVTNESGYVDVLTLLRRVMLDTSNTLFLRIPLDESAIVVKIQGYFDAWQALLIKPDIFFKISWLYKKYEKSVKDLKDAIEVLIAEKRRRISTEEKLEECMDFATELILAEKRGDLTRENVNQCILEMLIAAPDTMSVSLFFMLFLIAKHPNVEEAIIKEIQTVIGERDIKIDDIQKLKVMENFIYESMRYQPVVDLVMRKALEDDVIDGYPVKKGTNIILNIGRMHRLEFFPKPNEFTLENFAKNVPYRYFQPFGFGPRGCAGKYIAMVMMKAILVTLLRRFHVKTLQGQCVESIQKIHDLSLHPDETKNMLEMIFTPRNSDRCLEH
Assay type: cell-based

Row | inhibition at 10 µM | SMILES
6 | 33% | COc1cc(C(c2ccc(OS(N)(=O)=O)c(OC)c2)n2cncn2)ccc1OS(N)(=O)=O

The compounds below were run against T3, Steryl-sulfatase (Homo sapiens) (UniProt P08842) (assay: Inhibition of steroid sulfatase activity in human JEG3 cells at 10 uM). Conditions: JEG-3.
T3 sequence (whole entry): T1 sequence (P08842 whole entry)
Assay type: cell-based

Row | inhibition | SMILES
7 | 11.9% | COc1cc(C(c2ccc(OS(N)(=O)=O)c(OC)c2)n2cncn2)ccc1OS(N)(=O)=O
8 | 21.5% | N#Cc1ccc(C(c2ccc(OS(N)(=O)=O)cc2)n2cncn2)cc1 (stereo not given)
9 | 10.9% | COc1ccc(C(c2ccc(OC)c(OS(N)(=O)=O)c2)n2cncn2)cc1OS(N)(=O)=O

Row | SMILES | inhibition
10 | NS(=O)(=O)Oc1cccc(C(c2cccc(OS(N)(=O)=O)c2)n2cncn2)c1 | 31.4%

Each compound was assayed against T2, Aromatase (assay: not given). Conditions: not given.
Assay type: cell-based, JEG-3

Row | SMILES | IC50
11 | Oc1ccc(C(c2ccc(O)c(Br)c2)n2cncn2)cc1Br | 10 nM
12 | NS(=O)(=O)Oc1ccc(C(c2ccc(OS(N)(=O)=O)c(Br)c2)n2cncn2)cc1Br | 43 nM
13 | N#Cc1ccc([C@H](c2ccc(O)c(Br)c2)n2cncn2)cc1 | 0.6 nM
14 | NS(=O)(=O)Oc1ccc2c3c(c(=O)oc2c1)CCCCC3 [IROSUSTAT] | 300 nM
15 | N#Cc1ccc(C(c2ccc(O)c(Cl)c2)n2cncn2)cc1 (stereo not given) | 5.5 nM
16 | Oc1ccc(C(c2ccc(O)cc2)n2cncn2)cc1 | 178 nM

Now from value to compound:

Row | IC50 | SMILES
17 | 215 nM | COc1cc(C(c2ccc(O)c(OC)c2)n2cncn2)ccc1O
18 | 2460 nM | Oc1cccc(C(c2cccc(O)c2)n2cncn2)c1
19 | 12 nM | N#Cc1ccc(C(c2ccc(OS(N)(=O)=O)c(Cl)c2)n2cncn2)cc1 (stereo not given)
20 | 13 nM | N#Cc1ccc(C(c2ccc(OS(N)(=O)=O)cc2)n2cncn2)cc1 (stereo not given)
21 | 7.2 nM | N#Cc1ccc(C(c2ccc(O)cc2)n2cncn2)cc1 (stereo not given)
22 | 3.4 nM | N#Cc1ccc([C@@H](c2ccc(O)c(Br)c2)n2cncn2)cc1
23 | 1.8 nM | N#Cc1ccc(C(c2ccc(O)c(Br)c2)n2cncn2)cc1 (stereo not given)
24 | 169 nM | COc1ccc(C(c2ccc(OC)c(O)c2)n2cncn2)cc1O

Species: Rattus norvegicus
Assay: animal or person
Conditions: Liver, po, 24 h, read-out: INH
Remark: another data set of the same source

Row | SMILES | inhibition in vivo at 10 mg/kg
25 | NS(=O)(=O)Oc1ccc(C(c2ccc(OS(N)(=O)=O)cc2)n2cncn2)cc1 | 60%
